Source: patent US11186573B2, “Inhibitors of ROR gamma” (Vitae Pharmaceuticals, LLC, priority 2017, dated 2021)
Entries after “also recorded” stand apart in the source; their conditions may differ. Counter-ions that a name gives are not always drawn.

How the values were obtained:
Format in all cases: physicochemical
[1] = Oxidation/degradation during salt screening and salt preparation; conditions: for degradation during preparation: salt preparation / air-drying
Protocol: A salt/co-crystal screening was conducted under 127 conditions with 20 salt/co-crystal co-formers and seven solvent systems. For each condition, approximately 20 mg of Compound 1 was dispersed in the selected solvent in a glass vial and then salt/co-crystal co-former was added. Observation of slurries were followed by isolation and analysis of the resulting solids. Even though some crystalline solids were isolated and analyzed by XRPD, discoloration, possibly associated with decomposition was also observed (Table 1). Salt-screening experiments yielding a unique XRPD pattern were analyzed by HPLC-UV and were all determined to be primarily composed of degradants.
With the exception of the HBr salt, salt screening was unsuccessful in identifying further options for new forms of Compound 1 because of degradation. […] For example, solvent systems in which Compound 1 has limited solubility were chosen for formation of the HCl and sulfates salts to limit oxidation, while providing enough solubility to promote conversion to crystalline salts. However, this approach is time consuming and not favorable for large scale manufacturing methods.

[2] = Dynamic Vapor Sorption (DVS) moisture uptake
[3] = Slurry in acetone/water (1:1 v/v), hydrate stability at water activity; conditions: aw=0.91, acetone/water 1:1 v/v, slurried one week at ambient
Text: Form D can also isolated from the amorphous bis-hydrogen bromide salt form of Compound 1 in a slurry experiment comprising acetone/water (1:1 v/v). For example, a saturated solution the amorphous bis-hydrogen bromide salt form om acetone/water (1:1 v/v) was slurried for one week at ambient and the solid was harvested to obtain Form D. The water activity (aw) of an equal volume mixture of acetone and water is 0.91. See SSCI internal report, Water Activity Calculations using UNIFAC Calculator, SR-20150515.01, dated Jul. 23, 2015. When solvent-free polymorphs are considered, the relative thermodynamic stability of two polymorphs is determined by the Gibbs free energy difference at a given temperature and pressure. However, when hydrate forms are considered, the water activity in the solvent contributes to the relative physical stability and thus, the resulting form. See Qu H, Louhi-Kultanen M, Kallas J. Solubility and stability of anhydrate/hydrate in solvent mixtures. Int J Pharm. 2006; 321:101-107 and Zhu H, Grant D J W. Influence of water activity in organic solvent+water mixtures on the nature of the crystallizing drug phase. 2. Ampicillin. Int J Pharm. 1996; 139:33-43.

[4] = Solubility in re-slurry solvents

## O=S(=O)(O)O [sulfate]
[1]
  degradation during preparation: less degradation than others

## CCS(=O)(=O)c1ccc(CNC(=O)c2cnc3c(c2)CN(C[C@H]2CC[C@H](C(F)(F)F)CC2)[C@H]3C(C)C)nc1 [Compound 1]
[1]; particularly in solution
  susceptibility to oxidation: highly susceptible to oxidation

## CCS(=O)(=O)c1ccc(CNC(=O)c2cnc3c(c2)CN(C[C@H]2CC[C@H](C(F)(F)F)CC2)[C@H]3C(C)C)nc1 [Form D]
[2]; DVS isotherm plots, FIG. 16 vs FIGS. 4, 8, 12
  moisture uptake compared with the other solid forms: significantly less moisture update; also recorded: significantly less than the other forms
[3]
  stability of the hydrate at water activity: stable
[4]
  solubility in isopropyl acetate/water mixture compared with heptane/water mixture: greater
[4]; re-slurry solvents
  solubility in IPAc compared with n-heptane: slightly higher

## adipic acid
[1]; salt/co-crystal screening of Compound 1
  composition of isolated salt-screening solid by HPLC-UV: primarily degradants

## Br.CCS(=O)(=O)c1ccc(CNC(=O)c2cnc3c(c2)CN(C[C@H]2CC[C@H](C(F)(F)F)CC2)[C@H]3C(C)C)nc1 [mono-hydrogen bromide salt]
[2]; DVS, FIGS. 8 and 16
  amount of water absorbed relative to the corresponding bis-hydrogen bromide form: about twice the amount of water
[1]
  degradation during preparation: did not degrade during preparation

## CCS(=O)(=O)c1ccc(CNC(=O)c2cnc3c(c2)CN(C[C@H]2CC[C@H](C(F)(F)F)CC2)[C@H]3C(C)C)nc1 [bis-hydrogen bromide salt]
[2]; DVS isotherm, FIG. 16
  weight change (moisture uptake): ≤ 5%
[1]
  degradation during preparation: did not degrade during preparation
